Values joined by “and” are separate entries in the source; they are usually repeats but may differ in a detail not shown here. Identical values can stand only once.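 Following 48 hours of exposure in 96-well plates, responses at five concentrations were used to interpolate endpoints linearly. Abbreviation: GI50, concentration required for 50% inhibition of growth. TGI denotes the concentration required for complete inhibition of growth.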

Test systems include A498 renal; HCT-15 colon; IGROV1 ovarian; MCF7 breast; MDA-MB-435; SF-539 CNS; SNB-19 CNS; SW-620 colon; UACC-257 melanoma; NCI-H522 lung.
Assay in all cases: inhibition of tumour cell growth, NCI panel, 48 h

On to `O=C1Nc2c(Cl)cc(Cl)cc2/C1=N/N=C/c1ccco1`, for which the TGI is 57.7 µM in the assay on A498 renal; above 100 µM in the assay on HCT-15 colon; above 100 µM with IGROV1 ovarian; above 100 µM with MCF7 breast; above 100 µM in the assay with MDA-MB-435; above 100 µM with SF-539 CNS. The TGI with SNB-19 CNS, in the assay with SW-620 colon and in the assay with UACC-257 melanoma was above 100 µM each time.

For the compound `Cc1ccc(OCC2CO2)c(Br)c1` (stereo not drawn), the TGI with A498 renal was above 100 µM; in the assay on HCT-15 colon, 29.2 µM; in the assay on IGROV1 ovarian it was 37.1 µM; with MCF7 breast, 34.9 µM; in the assay with MDA-MB-435 it was 48.2 µM; in the assay on SF-539 CNS it was 29.9 µM. Also, the TGI in the assay with SNB-19 CNS is above 100 µM; in the assay with SW-620 colon, 33 µM; in the assay on UACC-257 melanoma, above 100 µM.

On to `CC1=C(C#N)C23C(=O)N(c4ccccc4)C(=O)C2=C(O)C=CC3(O)N1Cc1ccc(Cl)cc1Cl` (stereo not drawn), for which the GI50 in the assay on A498 renal is 5.79 µM; in the assay on HCT-15 colon it was 5.88 µM; in the assay on IGROV1 ovarian it was 2.86 µM; in the assay with MCF7 breast, 2.12 µM; in the assay with MDA-MB-435, 1.89 µM; with SF-539 CNS it was 2.11 µM. In addition, the GI50 is 3.8 µM with SNB-19 CNS, 2.07 µM in the assay on SW-620 colon and 13.2 µM with UACC-257 melanoma. The TGI in the assay on A498 renal was 18.1 µM; in the assay with HCT-15 colon, 19 µM; in the assay with IGROV1 ovarian, 7.19 µM; with MCF7 breast, 13.3 µM; in the assay with MDA-MB-435, 4.68 µM; with SF-539 CNS it was 4.9 µM. Besides, the TGI came to 14.9 µM in the assay on SNB-19 CNS, 4.29 µM in the assay on SW-620 colon and 27 µM in the assay with UACC-257 melanoma.

`NCCCCC(NC(=O)C(N)CCCN=C(N)N)C(=O)NC(CCCCN)C(=O)NC(CCCN=C(N)N)C(=O)NC(CCCN=C(N)N)C(=O)NC(CCC(N)=O)C(=O)NC(CCCN=C(N)N)C(=O)NC(CCCN=C(N)N)C(=O)NC(CCCN=C(N)N)C(=O)NCC(=O)NCC(=O)O` (stereo not drawn): the GI50 with A498 renal, in the assay on HCT-15 colon, in the assay with IGROV1 ovarian, with MCF7 breast, with MDA-MB-435 and in the assay on NCI-H522 lung was above 50 µM throughout. Also, the GI50 with SF-539 CNS, in the assay with SNB-19 CNS and in the assay with SW-620 colon was above 50 µM in each case. The TGI in the assay on A498 renal, with HCT-15 colon, in the assay with IGROV1 ovarian, in the assay on MCF7 breast, in the assay with MDA-MB-435 and in the assay with NCI-H522 lung was above 50 µM each time. Moreover, the TGI in the assay with SF-539 CNS, in the assay on SNB-19 CNS and in the assay with SW-620 colon was above 50 µM in each case.

Consider `C[C@@H]1C[C@H](N)C[C@H](c2ccncc2NC(=O)c2ccc(F)c(-c3c(F)cccc3F)n2)C1`, for which the GI50 in the assay on A498 renal was 11.6 µM and 4.53 µM; with HCT-15 colon it was 11.6 µM and > 10 µM; with IGROV1 ovarian, 5.05 µM and 8.68 µM; in the assay with MCF7 breast it was 10.8 µM and > 10 µM; in the assay on MDA-MB-435, 10.4 µM and 9.19 µM; in the assay with NCI-H522 lung, 13.2 µM and > 10 µM. For the same compound, the GI50 in the assay on SF-539 CNS was 11.3 µM and > 10 µM; in the assay with SNB-19 CNS, 15.6 µM and > 10 µM; in the assay with SW-620 colon it was 11.6 µM and 9.63 µM. The TGI is 24.8 µM and > 10 µM in the assay on A498 renal; 25.7 µM and > 10 µM with HCT-15 colon; 21 µM and > 10 µM with IGROV1 ovarian; 25 µM and > 10 µM in the assay on MCF7 breast; 22.1 µM and > 10 µM with MDA-MB-435; 28.6 µM and > 10 µM in the assay on NCI-H522 lung. For the same compound, the TGI with SF-539 CNS was 23.5 µM and > 10 µM; with SNB-19 CNS it was 30.3 µM and > 10 µM; with SW-620 colon it was 25.2 µM and > 10 µM.

Consider `COc1cnc2c(c1)C(=O)c1c-2n(CCCN2CCCC2)c(=O)c2cc([N+](=O)[O-])ccc12`, for which the GI50 was 0.0616 µM in the assay with HCT-15 colon; 0.0187 µM in the assay with IGROV1 ovarian; below 0.01 µM in the assay with MCF7 breast; 0.0647 µM in the assay on MDA-MB-435; 0.0607 µM in the assay on NCI-H522 lung; 0.0308 µM with SF-539 CNS. In addition, the GI50 in the assay on SNB-19 CNS is 0.0355 µM; in the assay with SW-620 colon, below 0.01 µM; with UACC-257 melanoma, 0.176 µM. Also, the TGI in the assay on HCT-15 colon was 4.05 µM; in the assay with IGROV1 ovarian, 1.36 µM; in the assay on MCF7 breast it was 1.46 µM; with MDA-MB-435 it was 1.13 µM; with NCI-H522 lung, 3.8 µM; with SF-539 CNS it was 0.353 µM. In addition, the figures for the TGI in the assay with SNB-19 CNS, in the assay on SW-620 colon and in the assay on UACC-257 melanoma were 4.3 µM, 1.34 µM and 11 µM, respectively.

For `Fc1cccc(COc2ccc(Nc3ncnc4onc(-c5ccccc5)c34)cc2)c1`, the GI50 in the assay on A498 renal was 0.24 µM; in the assay with HCT-15 colon, 2.43 µM; with IGROV1 ovarian, 0.249 µM; in the assay on MCF7 breast, 0.0393 µM; in the assay on NCI-H522 lung it was 0.138 µM; in the assay on SF-539 CNS, 0.185 µM. Also, the GI50 in the assay on SNB-19 CNS is 0.339 µM; with SW-620 colon it was 0.139 µM; in the assay with UACC-257 melanoma it was 37.5 µM. For the same compound, the TGI was 3.18 µM in the assay with A498 renal; above 100 µM with HCT-15 colon; above 100 µM in the assay on IGROV1 ovarian; above 100 µM in the assay on MCF7 breast; 0.905 µM in the assay with NCI-H522 lung; 1.09 µM in the assay with SF-539 CNS. For the same compound, the TGI with SNB-19 CNS, in the assay with SW-620 colon and in the assay on UACC-257 melanoma was above 100 µM throughout.

`CC(C)(C)OC(=O)C1C(=O)NC(=O)CC1CC(OCc1ccccc1)C(OCc1ccccc1)C(COCc1ccccc1)OCc1ccccc1` (stereo not drawn): the TGI was above 100 µM in the assay on A498 renal; above 100 µM in the assay with HCT-15 colon; above 100 µM in the assay on IGROV1 ovarian; > 100 µM and 89.6 µM in the assay on MCF7 breast; > 100 µM and 66.1 µM in the assay with MDA-MB-435; above 100 µM with SF-539 CNS. Besides, the TGI in the assay with SNB-19 CNS, in the assay with SW-620 colon and in the assay on UACC-257 melanoma was above 100 µM in each case. In addition, the GI50 with HCT-15 colon was 60.5 µM and 21.4 µM; with IGROV1 ovarian, > 100 µM and 22.3 µM; with MCF7 breast, 27 µM and 7.19 µM; in the assay with MDA-MB-435 it was 45.1 µM and 9.81 µM; in the assay with SF-539 CNS it was > 100 µM and 36.6 µM; with SNB-19 CNS it was 77.1 µM and 35.6 µM. For the same compound, the GI50 was 74.5 µM and 23.4 µM with SW-620 colon; 47.8 µM and 15.3 µM with UACC-257 melanoma.

Turning to `COc1ccc(NC(=O)Oc2ccc3c(C)cc(=O)oc3c2)c(OC)c1` (tested in a mixture with another compound), the TGI with A498 renal was 86.1 µM; in the assay on HCT-15 colon, above 100 µM; in the assay on IGROV1 ovarian, above 100 µM; in the assay with MDA-MB-435, above 100 µM; in the assay with NCI-H522 lung, above 100 µM; in the assay on SF-539 CNS, above 100 µM. Moreover, the TGI in the assay on SNB-19 CNS and in the assay on SW-620 colon was above 100 µM throughout.
